Laboratory results from paper PMC2621068 (Neuropeptides, 2008).
Several values for one entry are separate records, joined by “and”; a condition that tells them apart may be missing. Equal values may be shown once.

What was measured:
Kuming mice [1] = assay type: in vivo, mouse; conditions: for effect on writhing responses (in words): n = 8; for number of abdominal contortions: mouse, in vivo
NMDAR [2] = conditions: cited from earlier work
female Kuming mice = conditions: mouse, in vivo
NMDAR [3] = conditions: cited from earlier work; remark: listed apart in the source
Kuming mice [4] = conditions: mouse, in vivo; for edematogenic response after subcutaneous peptide (in words): sc
female mice = assay type: in vivo, mouse; conditions: for paw withdrawal latency as % of pre-administration values: mouse, in vivo
Kuming mice [5] = assay type: in vivo, mouse; conditions: for first phase response of the formalin test (in words) / second phase response of the formalin test (in words): n = 8; for paw biting/licking behaviors after subcutaneous peptide (in words): mouse, in vivo, sc
mice [6] = conditions: mouse, in vivo
Kuming mice [7] = conditions: mouse, in vivo
[8] = in vivo; cited from earlier work
mice [9] = conditions: mouse, in vivo; cited from earlier work

Row | Substance | effect on writhing responses (in words) (Kuming mice [1]) | IC50 (NMDAR [2]) | Paw withdrawal latency after peptide administration, 30 min (female Kuming mice) | Paw withdrawal latency after peptide administration, 90 min (female Kuming mice) | Paw withdrawal latency after peptide administration, 150 min (female Kuming mice) | Paw withdrawal latency after peptide administration, 240 min (female Kuming mice) | Paw withdrawal latency before peptide administration (female Kuming mice) | antinociception in the hot-plate test (in words) (female Kuming mice) | Increase in paw width (Kuming mice [4]) | Injected paw width, after formalin injection (Kuming mice [4]) | Injected paw width, before formalin injection (Kuming mice [4]) | first phase response of the formalin test (in words) (Kuming mice [5]) | second phase response of the formalin test (in words) (Kuming mice [5]) | other results
1 | GEγγLGKAQALIRAAYA-NH2 [Ala-con-G] | failed to attenuate writhing responses | 180 nM | 20.3 ± 8.6 s and 11.9 ± 3.4 s | 20.9 ± 5.7 s and 22.4 ± 9.5 s | 24.6 ± 10.4 s and 17.1 ± 7.5 s | 16.1 ± 5.0 s and 20.0 ± 16.1 s | 15.3 ± 3.0 s and 11.3 ± 1.9 s | ineffective at antinociception at all time points examined | 0.97 ± 0.05 mm | 2.56 ± 0.05 mm | 1.60 ± 0.02 mm | significantly reduced the time spent responding to the afflicted paw | neither Ala-con-G nor con-R[1-17] provided antinociception | components of binding to adult rat brain sections (in words) (NMDAR [3]): only the high-affinity NMDAR-specific component of binding; effect on withdrawal latencies in the CFA model (in words) (female mice; n = 8): failed to alter withdrawal latencies
2 | GEγγLQKNQγLIRγKSN-NH2 [con-G[γ7K]] | failed to attenuate writhing responses | 220 nM | 11.9 ± 4.3 s and 21.5 ± 12.5 s | – | – | – | 14.9 ± 3.5 s and 15.1 ± 3.9 s | – | – | – | – | significantly reduced the time spent responding to the afflicted paw | – | –
3 | GEγγLQγNQγLIRAKSN-NH2 [con-G[γ14A]] | – | 230 nM | 10.0 ± 3.3 s | 20.4 ± 14.2 s | ^ˆ25.4 ± 9.3 s | ^ˆ22.8 ± 8.6 s | 11.3 ± 1.5 s | ineffective at antinociception at all time points examined | – | – | – | – | – | –
4 | GEγγLQγNQγLIRAKYN-NH2 [con-G[S16Y]] | significantly effective in modulating responses to the acid stimulus | 140 nM | – | – | – | – | 13.4 ± 3.1 s and 9.0 ± 2.1 s | highest antinociceptive activity | 0.76 ± 0.05 mm | 2.33 ± 0.05 mm | 1.57 ± 0.03 mm | significantly reduced the time spent responding to the afflicted paw | highly effective in reducing the responses to the afflicted paw | number of abdominal contortions (Kuming mice [1]): 6.4 ± 4.6; increase in potency in the [3H]MK-801 binding assay compared to con-G (NMDAR [2]): 3.5 fold; motor impairment in the rotarod test, comparison of the two peptides (in words) (mice [6]): reverse effect; motor toxicity in the rotarod test relative to saline (in words) (mice [6]): some toxicity; rotarod stay time, 60 min versus 240 min test times (in words) (mice [6]): no significant differences; day 3 paw diameter after peptide injection (Kuming mice [7]): 2.26 ± 0.058 mm; day 3 paw diameter before peptide injection (Kuming mice [7]): 2.36 ± 0.039 mm; share of peptide associated with a low-affinity, non-receptor site (NMDAR [3]): approximately 80%; edematogenic response after subcutaneous peptide (in words) (Kuming mice [4]): nor did they reduce the edematogenic response; paw withdrawal latency as % of pre-administration values (female mice): 80%; increase of paw withdrawal latency compared to the day 3 controls (female mice; n = 8): ~2 s; paw biting/licking behaviors after subcutaneous peptide (in words) (Kuming mice [5]): did not significantly diminish paw biting/licking behaviors
5 | con-G[N8A]: NR2B-selective con-G variant (GEEELQEAQELIREKSN; not fully specified; Conantokin-G; UniProt P07231 81-97, looked up, variant N8A) | – | 490 nM | 11.6 ± 4.2 s | 13.5 ± 4.8 s | 12.6 ± 2.5 s | 13.8 ± 3.1 s | 11.1 ± 2.5 s | ineffective at antinociception at all time points examined | – | – | – | – | – | –
6 | conantokin-G [con-G] | – | 480 nM | 12.2 ± 4.5 s and 12.6 ± 12.5 s | – | – | – | 11.6 ± 2.1 s and 11.6 ± 2.5 s | – | 0.83 ± 0.03 mm | 2.38 ± 0.03 mm | 1.55 ± 0.02 mm | significantly reduced the time spent responding to the afflicted paw | highly effective in reducing the responses to the afflicted paw | number of abdominal contortions (Kuming mice [1]): 8.3 ± 6.0; median toxic dose, rotarod test [8]: ca. 300 pmol; percent inhibition of responses, first phase of the formalin test (mice [9]): 25-35%; edematogenic response after subcutaneous peptide (in words) (Kuming mice [4]): nor did they reduce the edematogenic response; paw withdrawal latency as % of pre-administration values (female mice): 80%; increase of paw withdrawal latency compared to the day 3 controls (female mice; n = 8): approximately 1 s; paw biting/licking behaviors after subcutaneous peptide (in words) (Kuming mice [5]): did not significantly diminish paw biting/licking behaviors
7 | conantokin-T [con-T] | – | 400 nM | 13.1 ± 3.1 s | 15.4 ± 4.8 s | 16.5 ± 4.6 s | 16.8 ± 4.5 s | 11.9 ± 2.9 s | without effect | – | – | – | – | – | median toxic dose, rotarod test [8]: ca. 300 pmol; percent inhibition of responses, first phase of the formalin test (mice [9]): 25-35%
